This is an account of results in ChEMBL document CHEMBL3871289, “Design, synthesis and antithrombotic evaluation of novel non-peptide thrombin inhibitors” (Bioorg Med Chem, 2017).

One experiment deals with Prothrombin (Homo sapiens, UniProt P00734). As to the kind of experiment: Inhibition of human thrombin assessed as reduction in release of free nitroaniline using tosyl-glycyl-prolyl-arginine-4-nitranilide acetate as substrate preincubated for 10 mins followed by substrate addition by spectrophotometer.
Experiment [1] relates to Rattus norvegicus. The experiment is described as follows: Anti-thrombotic activity in intragastrically dosed Sprague-Dawley rat venous thrombosis model assessed as reduction in thrombus weight administered once daily for 3 days measured 2 hrs post last dose. Format: functional, organism-based.
The test system of experiment [2] is Rattus norvegicus. The experiment is described as follows: Anti-thrombotic activity in Sprague-Dawley rat venous thrombosis model assessed as reduction in thrombus weight at 5 mg/kg, ig administered once daily for 3 days measured 2 hrs post last dose. Format: functional, organism-based.

The structures appear in SMILES notation. Activity calls are given as the source filed them. The calls are words filed in the database; no cut-off is given here.

Usually IC50 stands for the concentration needed to halve the response being measured. Regarding `N=C(N)c1ccc(CC2NCCn3c2nc2cc(C4(C(=O)N5CCCC5)CC4)ccc23)cc1` (stereo not drawn), on Prothrombin, the IC50 turned out to be 511 nM. Regarding `Cc1nc(C)c(OC(=O)/N=C(\N)c2ccc(CC3NCCn4c3nc3cc(C5(C(=O)N6CCCC6)CCCC5)ccc34)cc2)nc1C` (stereo not drawn), in the experiment on Rattus norvegicus [1], the Activity entry was “Dose-dependent effect”. As for `N=C(N)c1ccc(CC2NCCn3c2nc2cc(C4(C(=O)N5CCCCC5)CCC4)ccc23)cc1` (stereo not drawn), the half-maximal inhibitory concentration (IC50) on Prothrombin was determined as 456 nM. Consider `N=C(N)c1ccc(CC2NCCn3c2nc2cc(C4(C(=O)N5CCCCC5)CCCC4)ccc23)cc1` (stereo not drawn), for which the half-inhibitory concentration (IC50) on Prothrombin was 1030 nM.

Turning to `CCOC(=O)C(C)(C)c1ccc2c(c1)nc1n2CCNC1Cc1ccc(C(=N)N)cc1` (stereo not drawn), the IC50 at Prothrombin worked out at 1440 nM. With `CCCCCCOC(=O)NC(=N)c1ccc(NCc2nc3cc(C(=O)N(CCC(=O)OCC)c4ccccn4)ccc3n2C)cc1`, in the experiment with Rattus norvegicus [2], the result was Active.

On to `CCOC(=O)C1(c2ccc3c(c2)nc2n3CCNC2Cc2ccc(C(=N)N)cc2)CCCC1` (stereo not drawn), for which the IC50 at Prothrombin is 1920 nM.

On to `N=C(N)c1ccc(CC2NCCn3c2nc2cc(C4(C(=O)N5CCCC5)CCC4)ccc23)cc1` (stereo not drawn), for which, at Prothrombin, the IC50 is 446 nM.

Take `CC(C)(C(=O)N1CCCC1)c1ccc2c(c1)nc1n2CCNC1Cc1ccc(C(=N)N)cc1` (stereo not drawn): at Prothrombin, the IC50 stood at 147 nM. As to `N=C(N)c1ccc(CC2NCCn3c2nc2cc(C4(C(=O)N5CCCCC5)CC4)ccc23)cc1` (stereo not drawn), the IC50 on Prothrombin turned out to be 437 nM. Consider `CC(C)(C(=O)N1CCCCC1)c1ccc2c(c1)nc1n2CCNC1Cc1ccc(C(=N)N)cc1` (stereo not drawn), for which, at Prothrombin, the IC50 turned out to be 1000 nM. `CC(C)(C)OC(=O)/N=C(\N)c1ccc(CC2NCCn3c2nc2cc(C4(C(=O)N5CCCC5)CCCC4)ccc23)cc1` (stereo not drawn): the Activity entry with Rattus norvegicus [1] was “Dose-dependent effect”. In the case of `N=C(N)c1ccc(CC2NCCn3c2nc2cc(C4(C(=O)N5CCCC5)CCCC4)ccc23)cc1` (stereo not drawn), the IC50 on Prothrombin turned out to be 82.8 nM.
